The text below walks through data of publication PMC12254266, “Multicolored sequential resonance energy transfer for detection of simultaneous ligand binding at G protein-coupled receptors” (Nature Communications, 2025).

Several values for one entry are separate records, joined by “and”; a condition that tells them apart may be missing. Identical values can stand only once.

Test [1] has as its target T1, FFA1-Nluc (Homo sapiens, UniProt O14842). Briefly: DISCo-BRET (endpoint, spectra scan, kinetics) with TUG-2591 and TUG-2597 at C terminal Nluc tagged FFA1. The test is classed as binding. More on the design: expressed in transfected cells. The settings on record: for Specific BRET (690/450): Sup Fig 3Bi. The method in brief:
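Flp-In T-REx 293 cells expressing Nluc-tagged FFA1 were induced with 100 ng/mL doxycycline for 24 h, then given Nano-Glo (1:800 final). Endpoint and spectral reads were taken 5 min after ligand at 37 °C; kinetics were read at 25 °C with sequential ligand additions. BRET ratios were taken from Nluc, NBD and SulfoCy5 emissions.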

For test [2], the target named is T1, FFA1-Nluc. Put plainly: NanoBRET binding (saturation, kinetics) at C terminal Nluc tagged FFA1. More on the design: expressed in transfected cells. How it is done:
Nluc-FFA1 or FFA1-Nluc Flp-In T-REx 293 cells were plated at 50,000 cells per well in poly-D-lysine coated white 96-well plates. Cells were cultured for 24 h in the plate before medium was replaced with medium containing 100 ng/mL of doxycycline to induce receptor expression. After culturing for a further 24 h, medium was removed, cells were washed with HBSS and incubated in HBSS for 30 min. To start the assay, NanoGlo substrate (Promega, N1110) was added to the cells at a 1:800 final dilution and incubated for 10 min at 37 °C. For endpoint assays, including both saturation and competition binding, test ligands were then added, including both fluorescent and unlabelled competing ligands as indicated, and plates incubated for a further 5 min at 37 °C. NanoBRET was then quantified in a CLARIOstar microplate reader (BMG Labtech) by measuring luminescent emission with the monochrometer set for the Nluc donor at 450–60 nm, and acceptor luminescent emission 540–60 nm (NBD), 600–80 nm (Cy3.5) or 690–100 nm (SulfoCy5), depending on which fluorophore was being tested. The acceptor/donor BRET ratio was then taken as a measure of fluorophore binding. For kinetic on then off NanoBRET experiments plates were washed the same way and substrate was added to the same concentration. However, 10 min after substrate was added plates were inserted into the CLARIOstar microplate reader set to 25 °C to take repeated measurements of luminescent emission for both the donor and the acceptor fluorophore being used. After 5 min of background measurements, the indicated concentration of fluorescent ligand was added using the plate reader injector and luminescent emission was monitored for ~10 min before the reader was paused to manually add a high concentration of appropriate competing ligand to initiate dissociation. The plate was returned to the reader and luminescence measurements were continued for a further 30 min to monitor dissociation of the fluorescent ligand. For kinetic experiments using multiple concentrations of fluorescent ligand, cells were placed in the plate reader immediately after the addition of Nano-Glo substrate and luminescent measurements were taken. After 5 min, the reader was paused to add the indicated concentrations of fluorescent ligand, before measurements were continued. To set non-specific binding for kinetic experiments, the indicated competing ligand was added 5 min before the addition of the fluorescent ligand.
For orientation: BRET reads energy transfer from a luciferase to a nearby fluorophore.

[3] abbreviates: TUG-2597 […] first, then increasing TUG-2591 (Fig. 6H).
Where [4] appears, read: FFA1-Nluc, 95% confidence interval in parentheses, read-out: Kd, saturation BRET binding.
The mark [5] stands for this setting: TUG-2591 100 nM + TUG-2597 […], displacing ligand T360 10 μM.
Setting [6] is: TUG-2597 […] after TUG-2591 pre-treatment (Sup. Fig. 10A).
Where [7] appears, read: based on the value calculated in Supplementary Table 4.
[8] abbreviates: tracers 1.0 μΜ / 3.16 μΜ, displacing ligand T360 (30 μM).

T1 sequence (O14842 whole entry): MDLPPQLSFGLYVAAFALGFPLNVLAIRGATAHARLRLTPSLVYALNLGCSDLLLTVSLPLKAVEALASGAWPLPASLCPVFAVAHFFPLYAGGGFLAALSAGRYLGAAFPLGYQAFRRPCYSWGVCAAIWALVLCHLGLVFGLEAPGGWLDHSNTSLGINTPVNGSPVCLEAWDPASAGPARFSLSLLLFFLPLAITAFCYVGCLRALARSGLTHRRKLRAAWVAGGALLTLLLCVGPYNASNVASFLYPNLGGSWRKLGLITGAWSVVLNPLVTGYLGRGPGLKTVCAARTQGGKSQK

Regarding `Cc1cc(OCCCNC(=O)CCCN2\C(=C/C=C/C=C/C3=[N+](C)c4ccc(S(=O)(=O)[O-])cc4C3(C)C)C(C)(C)c3ccccc32)ccc1-c1cccc(COc2ccc(CCC(=O)O)c(F)c2)c1` [TUG-2591], the “Specific BRET (540/450)” value on FFA1-Nluc [1] (10 nM TUG-2591, + TUG-2597) is 0.2063 and 0.1967 and 0.1514 and 0.1434 and 0.1849 and 0.1798; on FFA1-Nluc [1] (Sup Fig 3Bii, TUG-2591 10 nM, with TUG-2597 + TUG-905), 0.2427 and 0.2316 and 0.2211 and 0.2363 and 0.1842 and 0.1961; on FFA1-Nluc [1] (Sup Fig 3Bii, TUG-2591 56 nM, with TUG-2597), 0.1505 and 0.1512 and 0.1284 and 0.1402 and 0.0985 and 0.0926; at FFA1-Nluc [1] (Sup Fig 3Bii, TUG-2591 56 nM, with TUG-2597 + TUG-905), 0.1690 and 0.2045 and 0.2352 and 0.2122 and 0.1905 and 0.1776; at FFA1-Nluc [1] (Sup Fig 3Bii, TUG-2591 100 nM, with TUG-2597) it was 0.1528 and 0.1591 and 0.1221 and 0.0973 and 0.0962 and 0.0870; on FFA1-Nluc [1] (Sup Fig 3Bii, TUG-2591 100 nM, with TUG-2597 + TUG-905) it was 0.1931 and 0.1764 and 0.2349 and 0.2150 and 0.1675 and 0.1714. The Kd on FFA1-Nluc [1] (FFA1-Nluc, […] TUG-2597, read-out: Kd, DISCo-BRET saturation SulfoCy5/NBD (Sup Fig 3Biii)) is 64 nM; at FFA1-Nluc [1] (FFA1-Nluc, […] TUG-2597, read-out: Kd, DISCo-BRET saturation SulfoCy5/NBD (Sup Fig 3Ciii)) it was 140 nM; at FFA1-Nluc [1] (FFA1-Nluc, […] TUG-2597, read-out: Kd, DISCo-BRET saturation SulfoCy5/Nluc (Sup Fig 3Bi)), 57 nM; at FFA1-Nluc [1] (FFA1-Nluc, […] TUG-2597, read-out: Kd, DISCo-BRET saturation SulfoCy5/Nluc (Sup Fig 3Ci)), 81 nM; at FFA1-Nluc [1] (TUG-2591 added after TUG-2597, read-out: Kd DISCo-BRET Single Concentration (kinetic)), 91 nM; at FFA1-Nluc [1] (TUG-2597 […] first, then increasing TUG-2591 (Fig. 6H), read-out: Kd DISCo-BRET Multiple Concentration (kinetic)) it was 220 nM. Further, the Kd on FFA1-Nluc [1] (in presence of […] TUG-2597, either construct, read-out: Kd, DISCo-BRET saturation (area under SulfoCy5 / NBD peaks)) was 50 to 100 nM; on FFA1-Nluc [2] (setting [4]) it was 23 nM. For the same compound, the “Specific BRET (690/450)” value is 0.0527 and 0.0499 and 0.0741 and 0.0890 and 0.0785 and 0.0761 and 0.0666 and 0.0608 at FFA1-Nluc [1] (TUG-2591 56 nM, with TUG-2597); 0.0715 and 0.0673 and 0.0821 and 0.0713 and 0.0718 and 0.0721 and 0.1131 and 0.1106 on FFA1-Nluc [1] (TUG-2591 100 nM, with TUG-2597). The “Specific BRET (690/540)” value on FFA1-Nluc [1] (Sup Fig 3Biii, TUG-2591 56 nM, with TUG-2597) was 0.0349 and 0.0333 and 0.0476 and 0.0572 and 0.0548 and 0.0534 and 0.0437 and 0.0392; at FFA1-Nluc [1] (Sup Fig 3Biii, TUG-2591 100 nM, with TUG-2597) it was 0.0480 and 0.0458 and 0.0524 and 0.0450 and 0.0542 and 0.0749 and 0.0751; at FFA1-Nluc [1] ([TUG-2591] 100 nM, with TUG-2597) it was 0.0559 and 0.0537 and 0.05545 and 0.05225 and 0.03465 and 0.04165. For the same compound, the “kOff DISCo-BRET SulfoCy5/NBD” value at FFA1-Nluc [1] (TUG-2591 100 nM + TUG-2597 […], displacing ligand TUG-905 10 μM) is 0.036 min⁻¹; on FFA1-Nluc [1] (tracers 1.0 μΜ / 3.16 μΜ, displacing ligand TUG-905 (30 μΜ)), 0.032 min⁻¹. Moreover, the “kOn DISCo-BRET Single Concentration” value on FFA1-Nluc [1] (TUG-2591 100 nM added after TUG-2597 […]) came to 1200000 M⁻¹ min⁻¹. Moreover, the “kOff DISCo-BRET Multiple Concentration” value on FFA1-Nluc [1] (setting [3]) is 0.11 min⁻¹. Besides, the “kOn DISCo-BRET Multiple Concentration” value at FFA1-Nluc [1] (setting [3]) worked out at 500000 M⁻¹ min⁻¹. The “kOff DISCo-BRET Single Concentration” value on FFA1-Nluc [1] (based on the value calculated in the multiple ligand experiment in Fig. 6H) is 0.11 min⁻¹. For the same compound, the “BMax, saturation BRET binding” value on FFA1-Nluc [2] (FFA1-Nluc, specific BRET, 95% confidence interval in parentheses) is given as 0.035 (0.032−0.038).

On to `COc1ccc(C(=O)N(CC(C)(C)CNc2ccc([N+](=O)[O-])c3nonc23)c2cccc(C)n2)c(N2CCC(COc3cccc(C(CC(=O)O)C4CC4)c3)CC2)c1.O=C(O)C(F)(F)F` (stereo not drawn) [TUG-2597], for which the “Specific BRET (540/450)” value was 0.2651 and 0.2434 and 0.2485 and 0.2471 and 0.2191 and 0.2108 at FFA1-Nluc [1] (Sup Fig 3Bii, TUG-2591 0 nM, TUG-2597 + TUG-905); 0.1932 and 0.1879 and 0.1690 and 0.1361 and 0.1137 and 0.1169 at FFA1-Nluc [1] (Sup Fig 3Bii, TUG-2591 0 nM, TUG-2597 alone). Moreover, the “kOff DISCo-BRET NBD/Nluc” value at FFA1-Nluc [1] (setting [5]) is 0.24 min⁻¹; on FFA1-Nluc [1] (TUG-2591 100 nM + TUG-2597 […], displacing ligands TUG-905 and T360 10 μM each), 0.22 min⁻¹; on FFA1-Nluc [1] (setting [7]) it was 0.24 min⁻¹; at FFA1-Nluc [1] (setting [8]) it was 0.24 min⁻¹; at FFA1-Nluc [1] (tracers 1.0 μΜ / 3.16 μΜ, displacing ligands TUG-905 and T360 (30 μM each)), 0.40 min⁻¹. Also, the “kOff DISCo-BRET SulfoCy5/NBD” value at FFA1-Nluc [1] (setting [5]) was 0.27 min⁻¹; at FFA1-Nluc [1] (setting [7]), 0.24 min⁻¹; at FFA1-Nluc [1] (setting [8]), 0.18 min⁻¹. For the same compound, on FFA1-Nluc [1] (setting [6]), the “kOn DISCo-BRET NBD/Nluc” value was 1900000 M⁻¹ min⁻¹. Further, the “kOn DISCo-BRET SulfoCy5/NBD” value on FFA1-Nluc [1] (setting [6]) came to 1700000 M⁻¹ min⁻¹. The Kd on FFA1-Nluc [1] (TUG-2597 after TUG-2591 pre-treatment, read-out: Kd DISCo-BRET NBD/Nluc (kinetic)) came to 130 nM; on FFA1-Nluc [1] (TUG-2597 after TUG-2591 pre-treatment, read-out: Kd DISCo-BRET SulfoCy5/NBD (kinetic)), 140 nM; on FFA1-Nluc [2] (setting [4]) it was 380 nM; on FFA1-Nluc [2] (no pre-treatment, read-out: Kd Nano-BRET Single Concentration (kinetic)), 270 nM. In addition, the “off rate from DISCo-BRET binding studies” value at FFA1-Nluc [1] (range depending on which tracer concentration was used (author rebuttal)) is 0.18-0.27. In addition, the “Specific BRET” value on FFA1-Nluc [2] (FFA1-Nluc (Fig 1E), percentage of the maximal signal, [TUG-2597] 550 nM) is 49.872% and 58.619% and 50.406% and 58.181% and 46.189%. Further, the “Specific BRET (540/450) Ratio” value at FFA1-Nluc [2] (FFA1-Nluc, [TUG-2597] 550 nM) is 0.0328 and 0.0282. The “kOff Nano-BRET Allosterism, FFA1-Nluc” value on FFA1-Nluc [2] (TUG-2597 (1 μM) in the presence of TUG-905 (30μM), 95% CI in parentheses) was 0.24 (0.23-0.25) min-1. The “kOff Nano-BRET Single Concentration” value on FFA1-Nluc [2] (setting [7]) is 0.38 min⁻¹. The “kOn Nano-BRET Single Concentration” value on FFA1-Nluc [2] (no pre-treatment, NBD/Nluc (Sup. Fig. 10A)) amounted to 1400000 M⁻¹ min⁻¹.
